{"source": "patent US10513519B2", "about": "“Solid forms of (1S,4S)-4-(2-(((3S,4R)-3-fluorotetrahydro-2H-pyran-4-yl)amino)-8-((2,4,6-trichlorophenyl)amino)-9H-purin-9-yl)-1-methylcyclohexane-1-carboxamide and methods of their use” (Signal Pharmaceuticals, LLC, priority 2016, dated 2019)", "key": {"[1]": {"assay": "pKa", "type": "physicochemical"}, "[2]": {"system": "pRSK1 S380 in LOX-IMVI cells", "assay": "pRSK1 S380 Mesoscale assay in LOX-IMVI", "type": "cell-based", "protocol": "(§1) Cancer cells were seeded at a density of 25,000 cells per well in 96-well tissue culture plates and incubated at 37° C. in a CO2 incubator overnight. After treatment with Compound 1 at 37° C. for 2 h, the cells were lysed with Mesoscale lysis buffer and pRSK S380 levels in each lysate were measured via Mesoscale ELISA technology."}, "[3]": {"system": "pRSK1 S380 in Colo 205 cells", "assay": "pRSK1 S380 Mesoscale assay in Colo 205 (incl. time course)", "type": "cell-based", "protocol": "as §1\nIn a time course experiment, Colo-205 cancer cells were treated with 0.5 μM Compound 1 for various time periods. The effect of Compound 1 on pRSK S380 was measured as described. The effect of Compound 1 on other MAPK pathway markers (DUSP4 and DUSP6) was measured via Western blotting with specific antibodies."}, "[4]": {"system": "DUSP4, DUSP6, cyclin D1, c-Myc, YAP in Colo 205 (BRAF V600E)", "assay": "Western blot of MAPK, Wnt and Hippo pathway markers in Colo 205", "type": "cell-based", "protocol": "The ability of Compound 1 to inhibit MAPK signaling was assessed by determining the DUSP4 and DUSP6 protein expression. Colon cancer cell line Colo 205 (BRAF V600E) cultures were treated with DMSO or increasing concentrations of Compound 1 for 2, 8 or 24 h. Proteins were extracted from treated cells and analyzed by Western blot using antibodies against DUSP4, DUSP6, cyclin D1, c-Myc, YAP or β-actin. RNAs were extracted using Cell-To-CT kit and quantitative PCR was performed with probes specific for DUSP4, DUSP6, SPRY2, c-Myc and cyclin D1. Specific probes for β-actin were used for normalization.\nCompound 1 modulation of MAPK, WNT/β-catenin, and Hippo/YAP pathway markers was evaluated by standard Western blotting. LOX-IMVI, SW48, and Colo-205 cells were plated in 6-well plates at a density of 250,000 cells per well and were allowed to attach overnight. Compound 1 was added to cells at concentrations of 0.03, 0.1, 0.3, 1, and 3 μM for durations of 2, 8, and 24 hours. […] The cell lysates were heated in sodium dodecyl sulfate (SDS)-sample buffer and 40 μg of cell lysate per condition were loaded onto gels and separated using SDS polyacrylamide gel electrophoresis (PAGE). Protein was transferred to nitrocellulose membrane, and immunoblotted with anti DUSP4, DUSP6, cMyc, Cyclin D1, YAP, AXIN2, HDAC5 (phospho S498), and β-actin antibodies. Membranes were scanned on the Licor Odyssey system."}, "[5]": {"system": "SW48 (colo) cells", "assay": "Long term colony assay, SW48", "type": "cell-based", "details": "SW48, up to 8 weeks", "protocol": "(§2) Compound 1 was assessed for its ability to inhibit the colony formation of cancer cells via a long-term colony forming assay. Cells and compounds were added to 96-well plates and were monitored for up to 8 weeks for the formation of colonies. Compound and media were replenished every 1 week throughout the course of the assay. Colony formation was detected via imaging at 4× on the IncuCyte ZOOM System. […] (FIGS. 210A-210D)."}, "[6]": {"system": "Hep3B (HCC) cells", "assay": "Long term colony assay, Hep3B", "type": "cell-based", "details": "up to 8 weeks", "protocol": "as §2"}}, "data": [{"smiles": "C[C@]1(C(N)=O)CC[C@@H](n2c(Nc3c(Cl)cc(Cl)cc3Cl)nc3cnc(N[C@@H]4CCOC[C@H]4F)nc32)CC1", "note": "[Compound 1, cis-4-[2-{[(3S,4R)-3-fluorooxan-4-yl]amino}-8-(2,4,6-trichloroanilino)-9H-purin-9-yl]-1-methylcyclohexane-1-carboxamide]", "values": [{"measurement": "pKa", "setting": "[1]", "result": 5.14}, {"measurement": "pRSK1 inhibition", "setting": "[2]; 2 h", "result": "potently inhibited pRSK1"}, {"measurement": "IC50", "setting": "[2]; Homo sapiens, 2 h treatment, n = 3", "result": 38, "unit": "nM"}, {"measurement": "pRSK1 inhibition", "setting": "[3]; Colo 205, 2 h", "result": "potently inhibited pRSK1"}, {"measurement": "inhibition of ERK targets pRSK1, DUSP4 and DUSP6 over time", "setting": "[3]; Colo-205, 0.5 μM, time course", "result": "sustained inhibition (up to 72 hr)"}, {"measurement": "IC50", "setting": "[3]; Homo sapiens, Colo 205, 2 h treatment, n = 3", "result": 47, "unit": "nM"}, {"measurement": "cyclin D1 and c-Myc RNA and protein levels", "setting": "[4]; Colo 205", "result": "significantly decreased"}, {"measurement": "YAP protein", "setting": "[4]; Colo 205, 24 h", "result": "decreased YAP protein"}, {"measurement": "DUSP4 and DUSP6 protein", "setting": "[4]; Colo 205, as early as 2 h, sustained through 24 h", "result": "significantly reduced"}, {"measurement": "inhibition of colony formation vs trametinib and GDC0994", "setting": "[5]", "result": "greater levels of inhibition than seen with treatment with MEK inhibitors or ERK inhibitors"}, {"measurement": "inhibition of colony formation vs trametinib and GDC0994", "setting": "[6]", "result": "greater levels of inhibition than seen with treatment with MEK inhibitors or ERK inhibitors"}]}]}
